Assay results as given in patent US5985603A, “P2x receptor DNA and protein sequence” (Glaxo Group Limited, priority 1994, dated 1999).

Assays:
hP2X = biological target: T1, hP2X (Homo sapiens, UniProt P51575); assay: inward currents evoked by purinoceptor agonists in Xenopus oocytes expressing hP2X; type: cell-based
T1 construct: expressed in transfected cells; host or cells: Xenopus oocytes injected with in vitro transcribed RNA
T1 sequence (P51575 1-399): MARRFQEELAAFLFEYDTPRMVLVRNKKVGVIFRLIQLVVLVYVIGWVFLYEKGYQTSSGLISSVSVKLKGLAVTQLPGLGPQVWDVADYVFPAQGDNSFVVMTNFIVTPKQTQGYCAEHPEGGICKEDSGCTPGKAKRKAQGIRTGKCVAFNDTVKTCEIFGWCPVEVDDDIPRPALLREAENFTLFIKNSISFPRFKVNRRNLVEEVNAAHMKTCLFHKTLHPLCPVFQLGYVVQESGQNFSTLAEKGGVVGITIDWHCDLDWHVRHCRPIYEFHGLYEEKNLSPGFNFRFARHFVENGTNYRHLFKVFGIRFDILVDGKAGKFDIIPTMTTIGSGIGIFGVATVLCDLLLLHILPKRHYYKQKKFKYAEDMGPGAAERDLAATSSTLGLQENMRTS
Method: Human urinary bladder P2X cDNA, subcloned into the pBKCMV expression vector, was linearized with Notl, and transcribed in vitro with T3 polymerase in the presence of cap analogue m7G(5')ppp(5')G. Defolliculated Xenopus oocytes (Bertrand et al, Electrophysiology of neuronal nicotinic acetylcholine receptors expressed in Xenopus oocytes following nuclear injection of genes or cDNAs Meth Neurosci 4: 174-193 (1991)) were injected with 50 ng of human P2X in vitro transcribed RNA, and incubated at 18° C. for 2-6 days in the ND96 solution (mM): NaCl96, KCl2, MgCl2 1, CaCl2 2, sodium pyruvate 5, HEPES 5, ph 7.6-7.5, penicillin (10 U/ml), and streptomycin (10 μg/ml).
Oocytes were placed in a 1 ml chamber and superfused at 2-3 ml/min with ND96 solution with 0.1 mM BaCl2 replacing the 2 mM CaCl2 to prevent activation of endogenous calcium-activated chloride currents (Barish, A transient calcium-dependent chloride current in the immature Xenopus oocytes J Physiol 342: 309-325 (1983)). Currents were measured using a two-electrode voltage-clamp amplifier (Geneclamp Axon Instruments)at a holding potential of -60 mV. Microelectrodes were filled with 3 M KCl (0.5-2 M.OMEGA.). Data were collected using PClamp software (Axon Instruments). […] Antagonists were applied both in the superfusate and together with ATP in the U-tube solution.
Concentration response curves for purinoceptor agonists were fitted with a Hill slope of 1. […] Data are presented throughout as mean ± SEM for a given number of oocytes.

[1] = biological target: T2, rat vas deferens P2X receptor (Rattus norvegicus, UniProt P47824); assay: electrophysiological recording in CHO cells stably transfected with rat vas deferens P2X receptor; type: cell-based; conditions: up to 30 μM
T2 construct: cRNA in Xenopus oocytes; stably transfected CHO cells
T2 sequence (P47824 1-399): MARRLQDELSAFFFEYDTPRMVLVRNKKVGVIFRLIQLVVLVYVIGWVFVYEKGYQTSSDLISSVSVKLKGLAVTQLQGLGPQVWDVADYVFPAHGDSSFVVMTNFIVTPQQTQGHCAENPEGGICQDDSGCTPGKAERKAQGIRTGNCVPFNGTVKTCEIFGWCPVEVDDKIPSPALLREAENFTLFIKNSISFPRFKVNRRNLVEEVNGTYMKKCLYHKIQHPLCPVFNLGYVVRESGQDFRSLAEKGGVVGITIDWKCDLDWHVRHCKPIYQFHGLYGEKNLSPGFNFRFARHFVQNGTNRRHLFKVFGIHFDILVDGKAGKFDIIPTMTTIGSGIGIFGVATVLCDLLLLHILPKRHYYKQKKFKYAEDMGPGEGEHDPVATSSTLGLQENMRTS
Text: (§1) CHO cells were stably transfected by a method used for other ion channels (Claudio, Meth. Enzymol. 207 391-408 (1992)). Transfection was confirmed by a) electro-physiological recording and b) radioligand binding. […] [^3 H]αβmethyleneATP binding was more than 600 cpm per million transfected cells with less than 80 cpm nonspecific binding.

[2] = system: non-transfected CHO cells; assay: electrophysiological recording in non-transfected CHO cells (control); type: cell-based, chinese hamster; conditions: up to 30 μM; 45 of 45 cells
Text: as §1

[3] = biological target: T3, rat vas/human bladder P2X cDNA clone (Homo sapiens, UniProt P51575); assay: functional properties of cloned P2X receptors (electrical recordings): bladder; type: cell-based
T3 construct: expressed in transfected cells; host or cells: HEK293 cells (oocytes are also named for the functional characterisation)
T3 sequence (P51575 1-399): T1 sequence (P51575 1-399)
Method: DNA concentration used was 1 mg/2 ml medium placed into a 35 mm petri dish containing four 11 mm diameter coverslips on which HEK cells were placed at 10,000 cells per coverslip. […] Currents were recorded from HEK 293 cells using whole-cell recording methods and the AXOPATCH™ 200 amplifier (Axon Instruments); patch pipettes (5 M.OMEGA.) contained (mM) Cs or K aspartate 140, NaCl 5, EGTA 11, HEPES 5. […] All recordings performed at room temperature. Data acquisition and analysis were performed using pCLAMP™ and AXOGRAPH™ software (Axon Instruments). […] ATP was applied by U-tube typically for 1 s; data was sampled at 5 kHz in 2 s segments beginning 300 ms prior to onset of agonist (ATP) application and filtered at 1 kHz.

P2X-purinoceptor = conditions: cited from earlier work
[4] = ATP higher concentrations (1 μM)

Nc1ncnc2c1ncn2[C@@H]1O[C@H](COP(=O)([O-])OP(=O)([O-])OP(=O)([O-])[O-])[C@@H](O)[C@H]1O.[Mg+2].[Mg+2] [ATP, adenosine 5'-triphosphate magnesium salt]
response to repeated application (hP2X; 100 μM ATP for 5 s every 10 min): reproducible inward currents | reversal of current on washout (hP2X; ATP): returned to control values on washout | time over which responses developed (hP2X; ATP 30-300 nM): 3 to 5 s | response after 5 s of continued application, of the peak amplitude (hP2X; [4]): 40-60 | time to peak of response (hP2X; [4]): 1 to 1.5 s | variation in peak amplitude on repeated application (hP2X; ATP up to 1 mM for 5 s every 10 mins): < 10% | comparison of concentration-effect curves (hP2X; ATP, 2MeSATP and 2-chloro-ATP): superimposable | agonist profile (rank order) (hP2X; oocytes expressing hP2X): 2MeSATP≥ATP>α,β,-meATP | activation at 10 µM (hP2X; read-out: response to 10 μM ATP, % of peak response to ATP): ~90% | rapidly desensitising inward currents, CHO cells responding [1]: rapidly desensitising inward currents in 14 of 14 CHO cells | effect in non-transfected cells [2]: no effect in 45 of 45 non-transfected cells | EC50 [3]: 700 nM | agonist potency order in whole tissue studies (P2X-purinoceptor): α,β,-meATP >>2MeSATP≥ATP
